This is an account of results in US9850245B2 (Merck Sharp & Dohme Corp., priority 2014, dated 2017).

One assay has as its target ROMK (Homo sapiens (Human), UniProt P48048). In words: Thallium Flux Assay. The class given is cell-based. As for the experimental part: A Thallium Flux Assay was performed on the compounds of the Examples. This assay has been described previously; see, e.g., PCT Published Application WO 2013/062900.
The next assay deals with Kir1.1 (ROMK1) (Homo sapiens (Human), UniProt P48048). In words: Electrophysiology Assay (whole cell voltage clamp, IonWorks Quattro). The following applies: Chinese hamster ovary cells stably expressing Kir1.1; fractional block at voltage step to 0 mV; 6 min compound incubation. The class given is cell-based. As for the experimental part:
Blocking of Kir1.1 (ROMK1) currents was examined by whole cell voltage clamp (Hamill et. al. Pfluegers Archives 391:85-100 (1981)) using the IonWorks Quattro automated electrophysiology platform (Molecular Devices, Sunnyvale, Calif.). Chinese hamster ovary cells stably expressing Kir1.1 channels were maintained in T-75 flasks in cell culture media in a humidified 10% CO2 incubator at 37° C. Prior to an experiment, Kir1.1 expression was induced by overnight incubation with 1 mM sodium butyrate. On the day of the experiment, cells were dissociated with 2.5 mL of Versene (Invitrogen 15040-066), a non-enzymatic cell dissociation reagent, for approximately 6 min at 37° C. and suspended in 10 mL of bath solution containing (in mM): 150 NaCl, 10 KCl, 2.7 CaCl2, 0.5 MgCl2, and 5 HEPES, at pH 7.4. After centrifugation, the cell pellet was resuspended in approximately 4.0 mL of bath solution and placed in the IonWorks instrument. The intracellular solution consisted of (in mM): 80 K gluconate, 40 KCl, 20 KF, 3.2 MgCl2, 3 EGTA, and 5 Hepes, at pH 7.4. Electrical access to the cytoplasm was achieved by perforation in 0.13 mg/mL amphotericin B for 4 min. Amphotericin B (Sigma A-4888) was prepared as a 40 mg/mL solution in DMSO.
Voltage protocols and current recordings were performed using the IonWorks HT software/hardware system. Currents were sampled at 1 kHz. There was no correction for liquid junction potentials. The test pulse, consisting of a 100 ms (millisecond) step to 0 mV (millivolts) from a holding potential of −70 mV, followed by a 100 ms voltage ramp from −70 mV to +70 mV, was applied before and after a 6 min compound incubation period. Test compounds were prepared by diluting DMSO stock solutions into the bath solution at 3× the final concentration and placed in the instrument in 96-well polypropylene plates. Current amplitudes were measured using the IonWorks software. To assess compound potency, the fractional block during the voltage step to 0 mV was calculated in Microsoft Excel (Microsoft, Redmond, Calif.), and dose-response curves were fitted with Igor Pro 4.0 (WaveMetrics, Lake Oswego, Oreg.).
(In general: The patch-clamp technique gives a direct electrical read-out from membranes.)

Kir1.1 (ROMK1), sequence (P48048 whole entry): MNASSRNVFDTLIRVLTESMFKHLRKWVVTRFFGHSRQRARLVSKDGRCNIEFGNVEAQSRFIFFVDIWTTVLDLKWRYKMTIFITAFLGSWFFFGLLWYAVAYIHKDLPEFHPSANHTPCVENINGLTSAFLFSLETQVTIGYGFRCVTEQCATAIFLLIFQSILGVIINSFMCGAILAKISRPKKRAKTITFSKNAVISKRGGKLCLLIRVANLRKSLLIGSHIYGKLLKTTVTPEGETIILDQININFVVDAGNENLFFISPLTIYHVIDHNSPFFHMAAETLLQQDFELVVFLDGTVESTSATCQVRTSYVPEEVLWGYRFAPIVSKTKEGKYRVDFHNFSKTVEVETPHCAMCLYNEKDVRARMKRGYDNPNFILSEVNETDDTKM
ROMK, sequence (P48048 whole entry): as above

The term IC50 denotes the concentration that inhibits the measured activity by half. Regarding `Cc1c([C@@H](O)CN2CCC3(CC2)CN(C2=CC(=O)OC2)C(=O)O3)ccc2c1COC2=O` [Example 16, (R)-8-(2-hydroxy-2-(4-methyl-1-oxo-1,3-dihydroisobenzofuran-5-yl)ethyl)-3-(5-oxo-2,5-dihydrofuran-3-yl)-1-oxa-3,8-diazaspiro[4.5]decan-2-one], the IC50 worked out at 315 nM at ROMK and 320 nM at Kir1.1 (ROMK1).
In the same order, the values of `CC1=C(N2CCOC3(CCN(CCc4ccc(-n5cnnn5)cn4)CC3)C2)COC1=O` [Example 50] are 57.6 nM and 16 nM.
Regarding `CC1=C(N2CCOC3(CCN(C[C@H](O)c4ccc5c(c4C)COC5=O)CC3)C2)COC1=O` [Example 21, (R)-5-(1-hydroxy-2-(4-(4-methyl-5-oxo-2,5-dihydrofuran-3-yl)-1-oxa-4,9-diazaspiro[5.5]undecan-9-yl)ethyl)-4-methylisobenzofuran-1(3H)-one], the IC50 at ROMK is 171 nM; against Kir1.1 (ROMK1), 77 nM.
Take `CC1=C(N2CCNC3(CCN(CC(O)c4ccc(-n5cnnn5)nc4C)CC3)C2=O)COC1=O` (single isomer, unassigned) [Example 2A, 9-(2-hydroxy-2-(2-methyl-6-(1H-tetrazol-1-yl)pyridin-3-yl)ethyl)-4-(4-methyl-5-oxo-2,5-dihydrofuran-3-yl)-1,4,9-triazaspiro[5.5]undecan-5-one]: the results for the half-inhibitory concentration (IC50) against ROMK and on Kir1.1 (ROMK1) were 36.5 nM and 26 nM, respectively.
For `CC1=C(N2CCNC3(CCN(C[C@H](O)c4ccc(-n5cnnn5)nc4)CC3)C2=O)COC1=O` [Example 4A, (R)-9-(2-(6-(1H-tetrazol-1-yl)pyridin-3-yl)-2-hydroxyethyl)-4-(4-methyl-5-oxo-2,5-dihydrofuran-3-yl)-1,4,9-triazaspiro[5.5]undecan-5-one] the same measures were 38.2 nM and 46 nM.
For `CC1=C(N2CCN(C)C3(CCN(C[C@H](O)c4ccc5c(c4C)COC5=O)CC3)C2=O)COC1=O` [Example 34, (R)-9-(2-hydroxy-2-(4-methyl-1-oxo-1,3-dihydroisobenzofuran-5-yl)ethyl)-1-methyl-4-(4-methyl-5-oxo-2,5-dihydrofuran-3-yl)-1,4,9-triazaspiro[5.5]undecan-5-one] the same measures were 42.3 nM and 27 nM.
For the compound `CC1=C(N2CCOC3(CCN(C[C@H](O)c4ccc(-n5cnnn5)nc4)CC3)C2=O)COC1=O` [Example 6A, (R)-9-(2-(6-(1H-tetrazol-1-yl)pyridin-3-yl)-2-hydroxyethyl)-4-(4-methyl-5-oxo-2,5-dihydrofuran-3-yl)-1-oxa-4,9-diazaspiro[5.5]undecan-5-one], the half-maximal inhibitory concentration (IC50) came to 14.6 nM on ROMK and 6.6 nM against Kir1.1 (ROMK1).
In the same order, the values of `O=C1C=C(N2CCOC3(CCN(C[C@@H](O)c4ccc(-n5cnnn5)nc4)CC3)C2)CO1` [Example 19B, (S)-4-(9-(2-(6-(1H-tetrazol-1-yl)pyridin-3-yl)-2-hydroxyethyl)-1-oxa-4,9-diazaspiro[5.5]undecan-4-yl)furan-2(5H)-one] are 263 nM and 100 nM.
For `Cc1nc(-n2cnnn2)ccc1C(O)CN1CCC2(CC1)CN(C1=CC(=O)OC1)CCO2` (single isomer, unassigned) [Example 20B, 4-(9-(2-hydroxy-2-(2-methyl-6-(1H-tetrazol-1-yl)pyridin-3-yl)ethyl)-1-oxa-4,9-diazaspiro[5.5]undecan-4-yl)furan-2(5H)-one] the same measures were 225 nM and 71 nM.
In the same order, the values of `O=C1C=C(N2CCOC3(CCN(C[C@H](O)c4ccc(-n5cnnn5)nc4)CC3)C2)CO1` [Example 19A, (R)-4-(9-(2-(6-(1H-tetrazol-1-yl)pyridin-3-yl)-2-hydroxyethyl)-1-oxa-4,9-diazaspiro[5.5]undecan-4-yl)furan-2(5H)-one] are 80.6 nM and 56 nM.
Take `CC1=C(N2CCOC3(CCN(CC(O)c4ccc(-n5cnnn5)nc4C)CC3)C2)COC1=O` (single isomer, unassigned) [Example 22B, 4-(9-(2-hydroxy-2-(2-methyl-6-(1H-tetrazol-1-yl)pyridin-3-yl)ethyl)-1-oxa-4,9-diazaspiro[5.5]undecan-4-yl)-3-methylfuran-2(5H)-one]: the results for the IC50 against ROMK and against Kir1.1 (ROMK1) were 117 nM and 29 nM, respectively.
Take `CC1=C(N2CCOC3(CCN(CCc4ccc(-n5cnnn5)nn4)CC3)C2=O)COC1=O` [Example 51, 9-(2-(6-(1H-tetrazol-1-yl)pyridazin-3-yl)ethyl)-4-(4-methyl-5-oxo-2,5-dihydrofuran-3-yl)-1-oxa-4,9-diazaspiro[5.5]undecan-5-one]: the IC50 came out at 26.8 nM against ROMK and 7.3 nM on Kir1.1 (ROMK1).
On to `CC1=C(N2CCOC3(CCN(C[C@@H](O)c4ccc(-n5cnnn5)nc4)CC3)C2=O)COC1=O` [Example 6B, (S)-9-(2-(6-(1H-tetrazol-1-yl)pyridin-3-yl)-2-hydroxyethyl)-4-(4-methyl-5-oxo-2,5-dihydrofuran-3-yl)-1-oxa-4,9-diazaspiro[5.5]undecan-5-one], for which the values for the concentration for half-maximal inhibition (IC50) at ROMK and on Kir1.1 (ROMK1) were 12.1 nM and 3.8 nM, respectively.
For `CC1=C(N2CCOC3(CCN(CC(O)c4cnc(-n5cnnn5)cn4)CC3)C2=O)COC1=O` (single isomer, unassigned) [Example 18A, 9-(2-(5-(1H-tetrazol-1-yl)pyrazin-2-yl)-2-hydroxyethyl)-4-(4-methyl-5-oxo-2,5-dihydrofuran-3-yl)-1-oxa-4,9-diazaspiro[5.5]undecan-5-one], the half-inhibitory concentration (IC50) stood at 69.6 nM at ROMK and 12 nM at Kir1.1 (ROMK1).
In the case of `O=C1C=C(N2CCC3(CCN(C[C@H](O)c4ccc(-n5cnnn5)nc4)CC3)OC2=O)CO1` [Example 26A, (R)-9-(2-(6-(1H-tetrazol-1-yl)pyridin-3-yl)-2-hydroxyethyl)-3-(5-oxo-2,5-dihydrofuran-3-yl)-1-oxa-3,9-diazaspiro[5.5]undecan-2-one], the IC50 against ROMK turned out to be 171 nM.
Same read-out and setting: as for `COc1cc(-n2cnnn2)ccc1C(O)CN1CCC2(CC1)CN(C1=C(C)C(=O)OC1)CCO2` (single isomer, unassigned) [Example 33A, 4-(9-(2-hydroxy-2-(2-methoxy-4-(1H-tetrazol-1-yl)phenyl)ethyl)-1-oxa-4,9-diazaspiro[5.5]undecan-4-yl)-3-methylfuran-2(5H)-one], the figure is 30.5 nM.
At ROMK, `Cc1nc(-n2cnnn2)ccc1C(O)CN1CCC2(CC1)CCN(C1=CC(=O)OC1)C(=O)O2` (single isomer, unassigned) [Example 27, 9-(2-hydroxy-2-(2-methyl-6-(1H-tetrazol-1-yl)pyridin-3-yl)ethyl)-3-(5-oxo-2,5-dihydrofuran-3-yl)-1-oxa-3,9-diazaspiro[5.5]undecan-2-one] yielded a 50% inhibitory concentration (IC50) of 65.5 nM.
As for `CC1=C(N2CCOC3(CCN(C[C@@H](F)c4ccc5c(c4C)COC5=O)CC3)C2=O)COC1=O` [Example 58, (S)-9-(2-fluoro-2-(4-methyl-1-oxo-1,3-dihydroisobenzofuran-5-yl)ethyl)-4-(4-methyl-5-oxo-2,5-dihydrofuran-3-yl)-1-oxa-4,9-diazaspiro[5.5]undecan-5-one], half-maximal inhibition against ROMK (IC50) was put at 306 nM.
The same measure, in the same setting: as for `CC1=C(N2CCOC3(CCN(CCc4ccc5c(c4C)COC5=O)CC3)C2=O)COC1=O` [Example 49, 9-(2-(4-methyl-1-oxo-1,3-dihydroisobenzofuran-5-yl)ethyl)-4-(4-methyl-5-oxo-2,5-dihydrofuran-3-yl)-1-oxa-4,9-diazaspiro[5.5]undecan-5-one], the figure is 52.4 nM.
`CC1=C(N2CCOC3(CC4CCC(C3)N4CC(O)c3cnc(-n4cnnn4)cn3)C2=O)COC1=O` (single isomer, unassigned) [Example 44] came in with a 50% inhibitory concentration (IC50) on ROMK of 478 nM.
Still for that read-out and setting: as for `CC1=C(N2CC3(CCN(CC(O)c4ccc(-n5cnnn5)nc4C)CC3)OCC2=O)COC1=O` (single isomer, unassigned) [Example 60, 9-(2-hydroxy-2-(2-methyl-6-(1H-tetrazol-1-yl)pyridin-3-yl)ethyl)-4-(4-methyl-5-oxo-2,5-dihydrofuran-3-yl)-1-oxa-4,9-diazaspiro[5.5]undecan-3-one], the figure is 48.4 nM; as for `Cc1cc(-n2cnnn2)ccc1C(O)CN1CCC2(CC1)CN(C1=CC(=O)OC1)CCO2` (single isomer, unassigned) [Example 30A, 4-(9-(2-hydroxy-2-(2-methyl-4-(1H-tetrazol-1-yl)phenyl)ethyl)-1-oxa-4,9-diazaspiro[5.5]undecan-4-yl)furan-2(5H)-one], 477 nM.
